Experimental data: publication PMC8583776, “PD-L1 Inhibitors: Different Classes, Activities, and Mechanisms of Action” (International Journal of Molecular Sciences, 2021)
Where two headings read alike, the source gives them in different places.

How the values were obtained:
[1] = biological target: T1, PD-1/PD-L1 immune checkpoint (Homo sapiens, UniProt Q9NZQ7); conditions: cited from earlier work; for ICB Assay %RLUmax: % of activation by therapeutic anti-PD-L1 antibody; for EC50: read-out: ICB Assay EC50
T1 construct: host or cells: CHO-K1 (CHO/TCRAct/PD-L1) cells and Jurkat Effector Cells
T1 sequence (Q9NZQ7 19-290): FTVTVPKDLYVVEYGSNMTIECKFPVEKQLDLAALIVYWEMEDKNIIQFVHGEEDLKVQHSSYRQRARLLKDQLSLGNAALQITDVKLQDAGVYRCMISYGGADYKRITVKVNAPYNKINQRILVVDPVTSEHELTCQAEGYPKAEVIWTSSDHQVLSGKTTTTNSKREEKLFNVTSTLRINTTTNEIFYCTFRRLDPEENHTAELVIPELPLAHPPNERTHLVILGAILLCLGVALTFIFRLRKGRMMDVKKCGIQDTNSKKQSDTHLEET

mPD-L1 = tested on: mPD-L1; set-up: method as in PMID 33437940; conditions: cited from earlier work; for Target Specificity mPD-L1: mouse PD-L1
hPD-1/hPD-L1 complex [2] = biological target: T2, hPD-1/hPD-L1 complex (Homo sapiens, UniProt Q9NZQ7); conditions: cited from earlier work
T2 construct: Tag1 or Tag2 (kit tag, identity not disclosed); purchased CisBio (Codolet, France)
T2 sequence (Q9NZQ7 19-238 limits assumed, one chain of several): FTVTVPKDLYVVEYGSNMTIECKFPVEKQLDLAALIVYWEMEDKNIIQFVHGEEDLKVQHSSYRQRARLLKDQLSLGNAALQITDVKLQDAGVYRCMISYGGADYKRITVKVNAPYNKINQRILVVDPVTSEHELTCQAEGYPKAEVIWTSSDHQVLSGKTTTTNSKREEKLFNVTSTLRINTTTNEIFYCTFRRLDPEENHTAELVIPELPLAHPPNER

human PD-L1 [3] = conditions: cited from earlier work
PD-1 = conditions: cited from earlier work
PD-1/PD-L1 complex = conditions: various assays; cited from earlier work
human PBMCs = tested on: human PBMCs; set-up: method as in PMID 31374878; conditions: cited from earlier work
mouse T cells = tested on: mouse T cells; set-up: method as in PMID 31374878; conditions: cited from earlier work
PD-L1 = tested on: PD-L1; set-up: method as in PMID 33619272; conditions: cited from earlier work
MC38-hPD-L1 tumor model = tested on: MC38-hPD-L1 tumor model; set-up: method as in PMID 33619272; conditions: humanized double knock-in mice for PD-1 and PD-L1; cited from earlier work
human PD-L1 [4] = tested on: human PD-L1; set-up: method as in PMID 29069777, PMID 28613862, PMID 27083005, PMID 33619272; conditions: in vitro PD-L1 dimerization in the presence of the molecule; cited from earlier work
hPD-L1 = tested on: hPD-L1; set-up: method as in PMID 33437940; conditions: cited from earlier work
hPD-1/hPD-L1 complex [5] = biological target: T2, hPD-1/hPD-L1 complex; experiment: HTRF assay of PD-1/PD-L1 complex formation blockade; type: binding; conditions: Figure A2, 5 nM hPD-L1, 50 nM hPD-1
Description: We performed a comparison of the in vitro targeting of the PD-1/PD-L1 immune checkpoint with molecules selected from various classes, including small molecules, macrocyclic peptides, and monoclonal antibodies. For this, two standardized and popular techniques used in the available literature were applied: the protein-based Homogeneous Time-Resolved Fluorescence (HTRF) method and the cell-based Immune Checkpoint Blockade (ICB) assay. Using these methods, three parameters describing the in vitro potency of the tested compounds were determined: (i) IC50 values of the blockade of PD-1/PD-L1 complex formation (from HTRF); (ii) EC50 values of the reactivation of the effector T cells blocked with PD-L1 (from ICB); and (iii) maximal activation levels of the effector T cells, calculated as the % of the activation in the presence of therapeutic anti-PD-L1 antibody atezolizumab or durvalumab. […]
The certified CisBio (Codolet, France) HTRF assay was used to determine the IC50 values of the compounds according to the manufacturer’s guidelines. […] IC50 of tested compounds was determined for two individual dilution series unless stated otherwise. After mixing, the plate was left for 2 h incubation at room temperature and later measured using Tecan Spark 20M multimode microplate reader (Tecan, Männedorf, Switzerland). […]

[6] = authors' laboratory, read-out: HTRF IC50 Ours
[7] = other laboratories, read-out: HTRF IC50 Other

Compound | ICB Assay %RLUmax [1] | EC50 [1] | Target Specificity mPD-L1 (mPD-L1) | IC50 (hPD-1/hPD-L1 complex [2]; [7]) | further results
CC(=O)NCCNCc1cc(C)c(OCc2cccc(-c3cccc(COc4cc(OCc5cccc(C#N)c5)c(CNCCNC(C)=O)cc4C)c3C)c2C)cc1OCc1cccc(C#N)c1 [2b] | 93% | 763 nM | No |  | 
O=C(O)[C@@H]1CCCCN1Cc1ccc(OCc2cccc(-c3ccccc3)c2Br)c(Br)c1 [2k] | 87% | 6630 nM | No |  | IC50 (hPD-1/hPD-L1 complex [2]; [6]): 14.9 nM
COc1cc(-c2cccc(-c3ccc4c(c3)OCCO4)c2Cl)ccc1CNC(CO)(CO)CO [8j] | 87% | 1030 nM | No |  | IC50 (hPD-1/hPD-L1 complex [2]; [6]): < 1 nM
CC(=O)NCCNCc1cc(C)c(OCc2cccc(-c3cccc4c3CCN4CCCN3CCC(O)CC3)c2C)cc1OCc1cccc(C#N)c1 [A20] | 55% | 430 nM |  | 17 nM | 
COc1nc(OCc2cccc(-c3ccccc3)c2C)ccc1CNCCNC(C)=O [BMS-202] |  |  | No |  | 
Cc1c(COc2cc(OCc3cccc(C#N)c3)c(CN3C[C@H](O)C[C@@H]3C(=O)O)cc2Cl)cccc1-c1ccc2c(c1)OCCO2 [BMS-1166] |  |  | No |  | 
COc1cc(-c2cccc(-c3cccc(-c4ccc(CN5CC(C(=O)O)C5)c(OC)c4)c3C)c2C)ccc1CN1CC(C(=O)O)C1 [C13] | 100% | 104 nM |  | 4.23 nM | 
C[C@@H](O)[C@H](NC(=O)N[C@@H](CC(N)=O)c1nc([C@@H](N)CO)no1)C(=O)O [CA-170] |  |  |  |  | activity in PD-1/PD-L1-focused cell-based ICB assay [1]: inactive; direct binding to human PD-L1 (human PD-L1 [3]): direct binder of neither human PD-L1 nor PD-1; direct binding to PD-1 (PD-1): direct binder of neither human PD-L1 nor PD-1; dissociation of the PD-1/PD-L1 complex (PD-1/PD-L1 complex): unable to dissociate the PD-1/PD-L1 complex; activation of human PBMCs (human PBMCs): increase the activation of human PBMCs; activation of mouse T cells (mouse T cells): increase the activation of human PBMCs and mouse T cells
O=C(O)[C@H](CO)NCc1ccc2c(Nc3cccc(-c4ccc5c(c4)OCCO5)c3Cl)nsc2c1 [CH20] | 93% | 5600 nM |  | 8.5 nM | 
O=C(O)[C@H](CO)NCc1cc(Br)c(OCc2cccc(-c3ccccc3)c2Br)cc1OCc1ccc2nonc2c1 [L7] | 75% | 375 nM |  |  | 
Cc1c(NC(=O)c2ccc(CNCCO)cn2)cccc1-c1cccc(NC(=O)c2ccc(CNCCO)cn2)c1C [comp. A] | 86.3% | 18.9 nM | No | 0.4 nM | dimerization of PD-L1 in a cellular context (PD-L1): dimerization of PD-L1; in vivo bioactivity (MC38-hPD-L1 tumor model): succeeded in showing the bioactivity
atezolizumab: therapeutic anti-PD-L1 antibody | 100% | 0.14 nM |  |  | PD-L1 Dimerization (human PD-L1 [4]): No; blockade of human PD-L1 (hPD-L1): blocks both human and mouse PD-L1; blockade of mouse PD-L1 (mPD-L1): blocks both human and mouse PD-L1
durvalumab: therapeutic anti-PD-L1 antibody | 100% | 0.23 nM | No |  | IC50 (hPD-1/hPD-L1 complex [5]; read-out: HTRF IC50): 0.0966 nM; IC50 (hPD-1/hPD-L1 complex [5]; [6]): 0.1 nM; PD-L1 Dimerization (human PD-L1 [4]): No; blockade of human PD-L1 (hPD-L1): blocks the human PD-L1; blockade of mouse PD-L1 (mPD-L1): not the mouse PD-L1
nivolumab: therapeutic antibody | 100% | 1.27 nM |  | 0.2 nM | 
p57: macrocyclic peptide PD-L1 inhibitor disclosed by Bristol Myers Squibb |  | 566 nM |  | 9 nM | 
p71: macrocyclic peptide PD-L1 inhibitor disclosed by Bristol Myers Squibb |  | 293 nM |  | 7 nM | 
p101: macrocyclic peptide PD-L1 inhibitor disclosed by Bristol Myers Squibb (FFIVIRDRVFRCG) |  | 7500 nM |  | 120 nM | IC50 (hPD-1/hPD-L1 complex [2]; [6]): 27.8 nM
